Data taken from patent publication US20150105252A1, “SUBSTITUTED PYRAZOLES AS HERBICIDES” (E I DU PONT DE NEMOURS AND COMPANY, priority 2013, published 2015).

How the values were obtained:
ducksalad = assay: Test B flood; type: in vivo, Heteranthera limosa; conditions: 250 g ai/ha, visual rating on 0 to 100 scale (0 no effect, 100 complete control), 13 to 15 days
Method in brief: (§1)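 Two-leaf-stage plants, pots flooded (3 cm above soil) and treated through the water, which stayed at that depth. After 13–15 days in greenhouse conditions, visual assessment versus controls: 0 is no effect, 100 complete control, dash means no result.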

barnyardgrass [1] = assay: Test C preemergence; type: in vivo, Echinochloa crus-galli
Method in brief: (§2)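 Visual rating, 0–100 scale (0 no effect, 100 complete control), vs untreated controls after 13–15 d greenhouse. Pre: seeds in loam/sand, treated at sowing. Post: plants in peat-based mix, 1- to 4-leaf (2–18 cm). Solvent + surfactant formulation, non-phytotoxic.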

barnyardgrass [2] = assay: Test A preemergence; type: in vivo, Echinochloa crus-galli; conditions: preemergence
Method in brief: (§3)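 Pre- and postemergence greenhouse test; loam+sand; cpd in non-phytotox. solvent/surfactant; post at 1–2 leaf, 2–10 cm; visual score ~10 d, 0 = none, 100 = complete control.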

galium [3] = assay: Test C preemergence; type: in vivo, Galium aparine
Method in brief: as §2

velvetleaf = assay: Test A preemergence; type: in vivo, Abutilon theophrasti; conditions: preemergence
Method in brief: as §3

corn [4] = assay: Test C preemergence; type: in vivo, Zea mays
Method in brief: as §2

corn [5] = assay: Test A preemergence; type: in vivo, Zea mays; conditions: preemergence
Method in brief: as §3

wheat = assay: Test A postemergence; type: in vivo, Triticum aestivum
Method in brief: as §3

oilseed rape = assay: Test C postemergence; type: in vivo, Brassica napus; conditions: for Oilseed Rape plant response rating / Plant response rating, Oilseed Rape: postemergence; for Oilseed Rape plant response rating: 62 g ai/ha, scale 0 to 100
Method in brief: as §2

galium [6] = assay: Test C postemergence; type: in vivo, Galium aparine; conditions: for Plant response rating (scale of 0 to 100 where 0 is no effect and 100 is complete control), Galium: Postemergence, 31 g ai/ha, visually evaluated after 13 to 15 days; for Galium plant response rating / Plant response rating, Galium: postemergence; for Galium plant response rating: 62 g ai/ha, scale 0 to 100
Method in brief: as §2

morningglory = assay: Test C preemergence; type: in vivo, Ipomoea coccinea
Method in brief: as §2

pigweed = assay: Test A preemergence; type: in vivo, Amaranthus retroflexus; conditions: preemergence
Method in brief: as §3

foxtail, giant = assay: Test A preemergence; type: in vivo, Setaria faberii; conditions: preemergence
Method in brief: as §3

blackgrass = assay: Test C postemergence; type: in vivo, Alopecurus myosuroides; conditions: for Plant response rating (scale of 0 to 100 where 0 is no effect and 100 is complete control), Blackgrass: Postemergence, 31 g ai/ha, visually evaluated after 13 to 15 days; for Blackgrass plant response rating / Plant response rating, Blackgrass: postemergence; for Blackgrass plant response rating: 62 g ai/ha, scale 0 to 100
Method in brief: as §2

sedge, umbrella = assay: Test B flood; type: in vivo, Cyperus difformis; conditions: 250 g ai/ha, visual rating on 0 to 100 scale (0 no effect, 100 complete control), 13 to 15 days
Method in brief: as §1

[7] = preemergence, 31 g ai/ha, visual rating, scale 0 to 100 (0 no effect, 100 complete control), 13 to 15 days
[8] = preemergence, 62 g ai/ha, scale 0 to 100 (0 no effect, 100 complete control), 13 to 15 days
[9] = preemergence, 125 g ai/ha, 13 to 15 days, scale 0 to 100, 0 = no effect, 100 = complete control
[10] = preemergence, 250 g ai/ha, scale 0 to 100, 0 is no effect, 100 is complete control
[11] = 125 g ai/ha, visual injury approx. 10 days after treatment
[12] = 500 g ai/ha, visual injury after approx. 10 days, 0 to 100 scale (0 no effect, 100 complete control)
[13] = 250 g ai/ha, scale 0 to 100 (0 no effect, 100 complete control)
[14] = 125 g ai/ha, scale 0 to 100, 0 no effect, 100 complete control
[15] = preemergence, 125 g ai/ha, scale 0 to 100, 0 is no effect, 100 is complete control
[16] = 125 g ai/ha, visual injury, 0 to 100 scale, approx. 10 days

CCCc1cc(C(=O)NC(C)C)nn1Cc1ccnc(C(F)(F)F)c1 [Compound 186]
Plant response rating, Ducksalad (ducksalad): 80
Barnyardgrass plant response rating (barnyardgrass [1]; [7]): 100
Barnyardgrass plant response rating (barnyardgrass [1]; [8]): 100
Plant response rating, Barnyardgrass (barnyardgrass [1]; [9]): 100
Barnyardgrass plant response rating (barnyardgrass [1]; [10]): 100
Barnyardgrass plant response rating (0 to 100 scale, 0 is no effect, 100 is complete control) (barnyardgrass [2]; [11]): 100
Barnyardgrass plant response rating (barnyardgrass [2]; [12]): 100
Galium plant response rating (galium [3]; [7]): 50
Galium plant response rating (galium [3]; [8]): 100
Plant response rating, Galium (galium [3]; [9]): 100
Galium plant response rating (galium [3]; [10]): 95
Velvetleaf plant response rating (0 to 100 scale) (velvetleaf; [11]): 100
Velvetleaf plant response rating (velvetleaf; [12]): 100
Corn plant response rating (corn [4]; [7]): 55
Corn plant response rating (corn [4]; [8]): 85
Plant response rating, Corn (corn [4]; [9]): 95
Corn plant response rating (corn [4]; [10]): 98
Corn plant response rating (0 to 100 scale) (corn [5]; [11]): 80
Corn plant response rating (corn [5]; [12]): 100
Wheat plant response rating (wheat; Postemergence, 125 g ai/ha, 0 to 100 scale, 0 no effect, 100 complete control): 0
Wheat plant response rating (wheat; Postemergence, 500 g ai/ha, 0 to 100 scale (0 no effect, 100 complete control)): 90
Oilseed Rape plant response rating (oilseed rape): 60
Plant response rating, Oilseed Rape (oilseed rape; [13]): 85
Plant response rating, Oilseed Rape (oilseed rape; [14]): 80
Plant response rating (scale of 0 to 100 where 0 is no effect and 100 is complete control), Galium (galium [6]): 70
Galium plant response rating (galium [6]): 80
Plant response rating, Galium (galium [6]; [13]): 100
Plant response rating, Galium (galium [6]; [14]): 75
Morningglory plant response rating (morningglory; [7]): 98
Morningglory plant response rating (morningglory; [8]): 70
Plant response rating, Morningglory (morningglory; [9]): 100
Morningglory plant response rating (morningglory; [10]): 100
Pigweed plant response rating (0 to 100 scale) (pigweed; [11]): 0
Pigweed plant response rating (pigweed; [12]): 0
Foxtail, Giant plant response rating (0 to 100 scale) (foxtail, giant; [11]): 100
Foxtail, Giant plant response rating (foxtail, giant; [12]): 100
Plant response rating (scale of 0 to 100 where 0 is no effect and 100 is complete control), Blackgrass (blackgrass): 5
Blackgrass plant response rating (blackgrass): 10
Plant response rating, Blackgrass (blackgrass; [13]): 60
Plant response rating, Blackgrass (blackgrass; [14]): 10
Plant response rating, Sedge, Umbrella (sedge, umbrella): 80

CCc1cc(C(=O)NCC(F)(F)F)nn1Cc1cc(C(F)(F)F)nn1C [Compound 108, 5-ethyl-1-[[1-methyl-3-(trifluoromethyl)-1H-pyrazole-5-yl]methyl]-N-(2,2,2-trifluoroethyl)-1H-pyrazole-3-carboxamide]
Plant response rating, Ducksalad (ducksalad): 60
Plant response rating (scale of 0 to 100), Barnyardgrass (barnyardgrass [1]; Preemergence, 250 g ai/ha): 100
Barnyardgrass plant response rating (barnyardgrass [1]; preemergence, 31 g ai/ha, scale 0 to 100 (0 no effect, 100 complete control), 13 to 15 days): 50
Barnyardgrass plant response rating (barnyardgrass [1]; [8]): 100
Barnyardgrass plant response rating (barnyardgrass [1]; [15]): 100
Barnyardgrass plant response rating (barnyardgrass [2]; [16]): 90
Barnyardgrass plant response rating (barnyardgrass [2]; [12]): 100
Plant response rating (scale of 0 to 100), Galium (galium [3]; Preemergence, 250 g ai/ha): 100
Galium plant response rating (galium [3]; [7]): 85
Galium plant response rating (galium [3]; [8]): 100
Galium plant response rating (galium [3]; [15]): 100
Velvetleaf plant response rating (velvetleaf; [16]): 60
Velvetleaf plant response rating (velvetleaf; [12]): 100
Plant response rating (scale of 0 to 100), Corn (corn [4]; Preemergence, 250 g ai/ha): 95
Corn plant response rating (corn [4]; [7]): 5
Corn plant response rating (corn [4]; [8]): 30
Corn plant response rating (corn [4]; [15]): 95
Corn plant response rating (corn [5]; [16]): 30
Corn plant response rating (corn [5]; [12]): 90
Wheat plant response rating (wheat; Postemergence, 500 g ai/ha, visual rating after approx. 10 days, 0 to 100 scale (0 no effect, 100 complete control)): 90
Wheat plant response rating (wheat; postemergence, 125 g ai/ha, about 10 days, visual rating on 0 to 100 scale (0 no effect, 100 complete control)): 40
Plant response rating (scale of 0 to 100 where 0 is no effect and 100 is complete control), Oilseed Rape (oilseed rape; Postemergence, 31 g ai/ha, visually evaluated after 13 to 15 days): 50
Oilseed Rape plant response rating (oilseed rape): 50
Plant response rating, Oilseed Rape (oilseed rape; [13]): 55
Plant response rating, Oilseed Rape (oilseed rape; [14]): 55
Plant response rating (scale of 0 to 100 where 0 is no effect and 100 is complete control), Galium (galium [6]): 60
Galium plant response rating (galium [6]): 60
Plant response rating, Galium (galium [6]; [13]): 90
Plant response rating, Galium (galium [6]; [14]): 80
Plant response rating (scale of 0 to 100), Morningglory (morningglory; Preemergence, 250 g ai/ha): 100
Morningglory plant response rating (morningglory; [7]): 98
Morningglory plant response rating (morningglory; [8]): 100
Morningglory plant response rating (morningglory; [15]): 100
Pigweed plant response rating (pigweed; [16]): 100
Pigweed plant response rating (pigweed; [12]): 100
Foxtail, Giant plant response rating (foxtail, giant; [16]): 100
Foxtail, Giant plant response rating (foxtail, giant; [12]): 100
Plant response rating (scale of 0 to 100 where 0 is no effect and 100 is complete control), Blackgrass (blackgrass): 0
Blackgrass plant response rating (blackgrass): 5
Plant response rating, Blackgrass (blackgrass; [13]): 30
Plant response rating, Blackgrass (blackgrass; [14]): 5
Plant response rating, Sedge, Umbrella (sedge, umbrella): 70
